Assay results: patent US12168664B2, “Triazolopyrimidines, their preparation and use” (THE TRUSTEES OF COLUMBIA UNIVERSITY IN THE CITY OF NEW YORK, priority 2018, dated 2024)
Where “and” joins values, the source holds several entries; their conditions need not be identical. Equal entries are not always repeated.

Legend:
RBP4-TTR interaction = RBP4-TTR interaction (Homo sapiens (Human), UniProt P02753); assay: HTRF (TR-FRET) assay for antagonists of retinol-induced RBP4-TTR interaction; assay type: biochemical; conditions: in the presence of 1 μM retinol
Description: TR-FRET Assay for Retinol-Induced RBP4-TTR Interaction
Binding of a desired RBP4 antagonist displaces retinol and induces hindrance for RBP4-TTR interaction resulting in the decreased FRET signal (FIG. 7). Bacterially expressed MBP-RBP4 and untagged TTR were used in this assay. For the use in the TR-FRET assay, the maltose binding protein (MBP)-tagged human RBP4 fragment (amino acids 19-201) was expressed in the Gold(DE3)pLysS E. coli strain (Stratagene) using the pMAL-c4x vector. Following cell lysis, recombinant RBP4 was purified from the soluble fraction using the ACTA FPLC system (GE Healthcare) equipped with the 5-ml the MBP Trap HP column. Human untagged TTR was purchased from Calbiochem. Untagged TTR was labeled directly with Eu^3+ Cryptate-NHS using the HTRF Cryptate Labeling kit from CisBio following the manufacturer's recommendations. HTRF assay was performed in white low volume 384 well plates (Greiner-Bio) in a final assay volume of 16 μl per well. […] Titration of test compounds in this assay was conducted in the presence of 1 μM retinol. […] TR-FRET signal was measured in the SpectraMax M5e Multimode Plate Reader (Molecular Device). […] The TR-FRET signal was expressed as the ratio of fluorescence intensity: Flu665/Flu620×10,000.
(§1) The compounds listed below were tested in two in vitro assays, RBP4 binding (SPA) and retinol-dependent RBP4-TTR interaction (HTRF) (Table 1).

A2E = A2E (bisretinoid) accumulation in eyes of Abca4−/− mice, HPLC of eyecups; assay type: in vivo; conditions: 35 mg/kg daily oral in chow, 8 weeks, p=0.0007
Experimental: (§2) Effect of 7a on accumulation of N-retinylidene-N-retinylethanolamine (A2E) in Eyes of the Abca4^−/− Mice
Animal protocols were approved by the Institutional Animal Care and Use Committee of Columbia University and complied with guidelines set forth by The Association for Research in Vision and Ophthalmology. […] Abca4^−/− (knockout) and C57BL/6J (wild-type control) mice were raised under 12 h on-off cyclic lighting with an in-cage illuminance of 30-50 lux. For long-term oral dosing 7a was formulated into Purina 5035 rodent chow at Research Diets, Inc. (New Brunswick, NJ) to ensure consistent 35 mg/kg daily oral dosing. Animals were administered the AKR-XI-85-containing chow for 8 weeks. […] Serum RBP4 was measured using the RBP4 (mouse/rat) dual ELISA kit (AdipoGen) following the manufacturer's instructions.
After the completion of dosing, animals were euthanized and posterior eyecups consisting of sclera, choroid and RPE were prepared from enucleated eyes according to the standard techniques. […] A previously established HPLC method (Journal of Biological Chemistry, 275, 29354-29360) was utilized for quantifying A2E in mouse eyecups. Quantitation of A2E was conducted by manually integrating the A2E peak (approximately 12-min elution time) which was identified by the co-elution with the synthetic A2E standard and by characteristic absorbance spectrum. […]

human RBP4 = human RBP4 (Homo sapiens (Human), UniProt P02753); assay: SPA binding assay for RBP4 (scintillation proximity, 3H-retinol displacement); conditions: 10 nM 3H-retinol, 50 nM biotinylated RBP4
Experimental: Scintillation Proximity RBP4 Binding Assay
Untagged human RBP4 purified from the urine of tubular proteinuria patients was purchased from Fitzgerald Industries International. It was biotinylated using the EZ-Link Sulfo-NHS-LC-Biotinylation kit from Pierce following the manufacturer's recommendations. […] Nonspecific binding was determined in the presence of 20 μM of unlabeled retinol. The reaction mix was assembled in the dark under dim red light. The plates were sealed with clear tape (TopSeal-A: 96-well microplate, PerkinElmer), wrapped in the aluminum foil, and allowed to equilibrate 6 hours at room temperature followed by overnight incubation at +4° C. Radiocounts were measured using a TopCount NXT counter (Packard Instrument Company).
as §1

CYP2D6 = CYP2D6 (Homo sapiens (Human), UniProt P10635); assay: CYP inhibition, fluorescent, CYP2D6; assay type: in vitro ADME
Sequence of CYP2D6 (P10635 whole entry, species assumed): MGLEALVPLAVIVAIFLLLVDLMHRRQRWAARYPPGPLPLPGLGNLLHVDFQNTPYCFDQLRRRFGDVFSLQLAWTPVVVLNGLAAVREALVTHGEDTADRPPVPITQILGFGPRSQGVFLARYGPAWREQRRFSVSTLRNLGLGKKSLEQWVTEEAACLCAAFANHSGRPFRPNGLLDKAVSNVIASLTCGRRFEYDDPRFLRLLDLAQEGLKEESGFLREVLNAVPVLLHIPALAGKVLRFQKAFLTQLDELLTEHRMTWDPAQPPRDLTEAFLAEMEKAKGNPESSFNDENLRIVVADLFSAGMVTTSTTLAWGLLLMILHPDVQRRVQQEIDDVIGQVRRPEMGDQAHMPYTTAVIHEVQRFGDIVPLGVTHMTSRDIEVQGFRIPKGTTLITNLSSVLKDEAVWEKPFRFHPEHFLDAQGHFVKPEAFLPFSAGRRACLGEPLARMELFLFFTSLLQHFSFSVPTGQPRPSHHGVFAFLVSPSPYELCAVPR
Experimental: (§3) The compounds listed below were tested in various metabolic stability and CYP inhibition assays.

PPARγ = PPARγ (Homo sapiens (Human), UniProt P37231); assay: PPARγ agonist assay (HTRF, PPARγ-NCOR interaction); assay type: biochemical; conditions: read-out: PPAR γ assay (HTRF) for agonists of this nuclear receptor - IC50
Sequence of PPARγ (P37231 204-505): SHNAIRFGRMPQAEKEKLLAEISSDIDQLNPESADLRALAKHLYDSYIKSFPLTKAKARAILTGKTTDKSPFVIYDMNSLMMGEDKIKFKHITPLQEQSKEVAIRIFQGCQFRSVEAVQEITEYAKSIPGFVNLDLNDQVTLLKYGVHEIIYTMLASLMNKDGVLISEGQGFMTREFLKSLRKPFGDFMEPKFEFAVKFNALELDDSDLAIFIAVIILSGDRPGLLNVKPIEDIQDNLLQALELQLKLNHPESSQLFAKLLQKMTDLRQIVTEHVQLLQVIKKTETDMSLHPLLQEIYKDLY
Description: Significant safety issues are associated with the clinical use of PPARγ agonists (increased risk of death, myocardial infarction, stroke, congestive heart failure, hepatotoxicity, peripheral edema, weight gain and carcinogenicity^1-4). We wanted to characterize the compounds we identified in a pilot screen as potential PPARγ agonists. The PPARγ assay is based on agonist-sensitive interaction of the GST-tagged ligand-binding domain (LRD) of the nuclear receptor PPARγ with the biotinylated corepressor NCOR peptide (FIG. 8).
Assay reactions are performed in a final volume of 16 ul.
In well of the 384-well assay plate, mix 6 ul of PPARγ solution, 4 ul of NCOR2 solution and 4 μl of Rosi solution. Test compounds diluted from DMSO stocks to 4× assay concentration in 1×HTRF, 100 mM KF buffer may be dispensed to well instead of Rosi. Negative control wells contained DMSO solvent alone; positive control well contained […]. […] Two μl of detection mix was added per well. […] The plate was incubated for 16 hrs at 4° C.
HTRF signal was measured in the SpectraMax M5e Multimode Plate Reader (Molecular Device). Fluorescence was excited at 337 nm. […] The signal was expressed as the ratio of fluorescence intensity: Flu668/Flu620×10,000. […]

CYP3A4 = CYP3A4 (Homo sapiens (Human), UniProt P08684); assay: CYP inhibition, fluorescent, CYP3A4; assay type: in vitro ADME
Sequence of CYP3A4 (P08684 whole entry, species assumed): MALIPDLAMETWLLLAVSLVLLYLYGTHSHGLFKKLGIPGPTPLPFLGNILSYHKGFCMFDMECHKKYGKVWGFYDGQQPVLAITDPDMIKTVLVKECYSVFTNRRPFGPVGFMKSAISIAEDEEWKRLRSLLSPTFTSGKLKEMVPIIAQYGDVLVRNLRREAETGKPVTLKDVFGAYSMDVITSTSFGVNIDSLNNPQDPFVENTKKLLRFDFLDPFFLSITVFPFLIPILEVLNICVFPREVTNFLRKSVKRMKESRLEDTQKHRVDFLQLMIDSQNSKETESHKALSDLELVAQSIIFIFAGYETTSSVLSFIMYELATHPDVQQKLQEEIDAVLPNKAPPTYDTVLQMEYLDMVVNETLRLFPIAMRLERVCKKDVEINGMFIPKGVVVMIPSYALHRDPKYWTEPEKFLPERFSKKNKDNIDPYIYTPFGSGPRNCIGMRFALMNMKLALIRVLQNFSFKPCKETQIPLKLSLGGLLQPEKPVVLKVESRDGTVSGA
Experimental: as §3

serum RBP4 = serum RBP4 (Mus musculus (Mouse), UniProt Q00724); assay: Serum RBP4 in Abca4−/− mice after 8-week dosing in chow; assay type: in vivo; conditions: 35 mg/kg daily oral in chow, 8 weeks
Experimental: as §2
Animal protocols were approved by the Institutional Animal Care and Use Committee of Columbia University and complied with guidelines set forth by The Association for Research in Vision and Ophthalmology. […] Abca4^−/− (knockout) and C57BL/6J (wild-type control) mice were raised under 12 h on-off cyclic lighting with an in-cage illuminance of 30-50 lux. For long-term oral dosing 7a was formulated into Purina 5035 rodent chow at Research Diets, Inc. (New Brunswick, NJ) to ensure consistent 35 mg/kg daily oral dosing. Animals were administered the AKR-XI-85-containing chow for 8 weeks. Blood samples were collected at baseline and at the end of the dosing period for serum RBP4 measurements. Whole blood was drawn into a centrifuge tube and was let clot at room temperature for 30 min followed by centrifugation at 2,000×g for 15 minutes at +4° C. to collect serum. Serum RBP4 was measured using the RBP4 (mouse/rat) dual ELISA kit (AdipoGen) following the manufacturer's instructions.
To assess pre-clinical efficacy of 7a in the mouse Abca4^−/− model, the compound was formulated into a standard mouse chow to provide the daily oral dosing of 35 mg/kg. Long-term 8-week dosing of the compound formulated into a chow was conducted in Abca4^−/− mice. […]

[1] = Metabolic stability in liver microsomes (HLM); assay type: in vitro ADME, human
Experimental: as §3

- IC50 (RBP4-TTR interaction): 209 nM and 194 nM and 240 nM
- IC50 (human RBP4): 23 nM
- IC50 (CYP2D6): > 100000 nM
- IC50 (PPARγ): > 100000 nM
- IC50 (CYP3A4): > 100000 nM
- serum RBP4 reduction at end of 8-week treatment (serum RBP4): Approximately 70%
- Metabolic stability in liver microsomes: % Remaining at 30 min, HLM [1]: 85%
SMILES: O=C(c1nc2ncccn2n1)N1C[C@H]2C[C@@H](c3ccccc3C(F)(F)F)C[C@H]2C1 [Compound 7a]
- A2E reduction vs control chow-treated Abca4−/− animals (A2E): 69%
